Laboratory results published in patent publication US6355644B1, “Benzylpiperazinyl-indolinylethanones” (Neurogen Corporation, priority 1999, dated 2002).
pKi: −log10 of the molar value.

Experiments:
dopamine D4 receptor = target: T1, dopamine D4 receptor (Homo sapiens, UniProt P21917); test: D4 receptor binding assay (3H-YM 09151-2 displacement); settings: CHO cells recombinantly expressing human D4; 0.1 nM 3H-YM 09151-2; 25° C.
T1 sequence (P21917 1-419): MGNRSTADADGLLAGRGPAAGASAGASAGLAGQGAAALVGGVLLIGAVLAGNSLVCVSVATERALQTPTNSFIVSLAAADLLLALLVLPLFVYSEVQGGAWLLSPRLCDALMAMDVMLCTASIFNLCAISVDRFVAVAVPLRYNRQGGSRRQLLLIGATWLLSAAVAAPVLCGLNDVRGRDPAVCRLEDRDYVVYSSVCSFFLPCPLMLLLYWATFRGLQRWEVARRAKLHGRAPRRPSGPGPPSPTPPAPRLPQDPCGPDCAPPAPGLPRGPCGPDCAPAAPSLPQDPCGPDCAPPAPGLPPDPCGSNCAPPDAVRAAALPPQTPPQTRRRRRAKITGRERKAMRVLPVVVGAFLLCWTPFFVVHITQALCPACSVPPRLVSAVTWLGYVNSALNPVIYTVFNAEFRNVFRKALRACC
Procedure: (§1) Determination of D2 and D4 Receptor Binding Activity
(§2) The following assay is used for determining the binding affinity of compounds to dopamine D4 and D2 receptors.
(§3) Pellets of Chinese hamster ovary (CHO) cells containing recombinantly expressing primate D2, human D4 or […] receptors are used for the assays. The sample is homogenized in 100 volumes (w/vol) of 0.05 M Tris HCl buffer containing 120 mM NaCl, 5 mM MgCl2 and 1 mM EDTA at 4° C. and pH 7.4. The sample is then centrifuged at 30,000×g, resuspended and rehomogenized. The sample is then recentrifuged at 30,000×g, the supernatant is removed and the final tissue sample is frozen until it is needed. The tissue is resuspended 1:20 (wt/vol) in 0.05 M Tris HCl buffer containing 120 mM NaCl.

dopamine D2 receptor = dopamine D2 receptor (Chlorocebus aethiops, UniProt P52702); test: D2 receptor binding assay (3H-YM 09151-2 displacement); settings: CHO cells recombinantly expressing primate D2; 0.1 nM 3H-YM 09151-2; 25° C.
Procedure: as §1, §2, §3

dopamine D2 receptor, sequence (P52702 whole entry): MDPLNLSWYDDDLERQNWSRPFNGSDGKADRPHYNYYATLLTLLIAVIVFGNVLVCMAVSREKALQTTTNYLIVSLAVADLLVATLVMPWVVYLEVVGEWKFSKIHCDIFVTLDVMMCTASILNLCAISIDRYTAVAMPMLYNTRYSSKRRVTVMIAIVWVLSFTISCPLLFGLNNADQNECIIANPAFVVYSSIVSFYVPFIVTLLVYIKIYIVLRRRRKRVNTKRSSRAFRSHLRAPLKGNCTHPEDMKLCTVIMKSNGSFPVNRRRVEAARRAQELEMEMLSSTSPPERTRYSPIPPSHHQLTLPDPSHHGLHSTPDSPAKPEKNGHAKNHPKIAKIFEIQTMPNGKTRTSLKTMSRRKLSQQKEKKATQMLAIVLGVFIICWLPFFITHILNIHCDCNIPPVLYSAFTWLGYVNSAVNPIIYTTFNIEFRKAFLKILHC

In the case of `Cc1ccc(CN2CCN(CC(=O)N3c4ccccc4[C@H]4CCCC[C@H]43)CC2)cc1` (relative stereo) [Compound 1o, 1-[(4b,8a-cis-5,6,7,8,9,4b,8a-heptahydro-4aH-carbazol-9-yl)ethyl]-2-{4-[(4-methylphenyl)methyl]piperazinyl}ethan-1-one], the pKi (dopamine D4 receptor) was 7.96 and the pKi (dopamine D2 receptor) was 6.70.
With `Cc1ccc(CN2CCN(CC(=O)N3CC(C)c4ccccc43)CC2)cc1` (centres unmarked) [Compound 1b] the pKi (dopamine D4 receptor) was 7.03 and the pKi (dopamine D2 receptor) was 5.58.
Work on `Cc1ccc(CN2CCN(CC(=O)N3c4ccccc4[C@@H](C)[C@H]3C)CC2)cc1` [Compound 1c] yielded a pKi (dopamine D4 receptor) of 8.70 and a pKi (dopamine D2 receptor) of 6.73.
`Cc1ccc(CN2CCN(CC(=O)N3c4ccccc4[C@H](C)[C@@H]3C)CC2)cc1` [Compound 1d] showed a pKi (dopamine D4 receptor) of 7.15 and a pKi (dopamine D2 receptor) of 6.33.
In the case of `COc1ccc(Cl)cc1CN1CCN(CC(=O)N2c3ccccc3C(C)C2C)CC1` (centres unmarked) [Compound 1e], the pKi (dopamine D4 receptor) was 7.66 and the pKi (dopamine D2 receptor) was 6.89.
With `COC(=O)C1Cc2ccccc2N1C(=O)CN1CCN(Cc2ccc(Cl)cc2)CC1` (centres unmarked) [Compound 1g] the pKi (dopamine D4 receptor) was 8.30.
Compound `O=C(CN1CCN(Cc2ccc(Cl)cc2)CC1)N1c2ccccc2CC1CO` (centres unmarked) [Compound 1j] has a pKi (dopamine D2 receptor) of 5.49.
`C=C[C@@H]1Cc2ccccc2N1C(=O)CN1CCN(Cc2ccc(Cl)cc2)CC1` [Compound 1l] was tested, and the pKi (dopamine D4 receptor) was 8.30.
Compound `O=C(CN1CCN(Cc2ccc(Cl)cc2)CC1)N1c2ccccc2C[C@H]1CF` [Compound 1m] has a pKi (dopamine D2 receptor) of 5.96.
